Legend:
[1] = Expert sensory testing of racemic menthol vs (−)-menthol in toothpaste (CREST Cavity) with standard spearmint flavor; format: in vivo
Protocol: In separate, unpublished internal experiments, perceptual experiences of racemic menthol are quantified via expert sensory testing. The use of a standard spearmint flavor (minimizing extra menthol contribution) compared racemic menthol to (−)-menthol in a toothpaste formulation (CREST Cavity). There are several sensory observations taken from these experiments. […] These aromatic notes appear during brushing and disappear after 5-10 minutes post expectoration and are more pronounced as concentrations increase.

[2] = Comparison of cooling attributes of (−)-menthol and racemic menthol in toothpaste (CREST Cavity formulation); format: in vivo
Excerpt: The following data helps support the use of racemic menthol to reduce costs of mint flavor compositions herein described. From internal unpublished research, Table B compares replacing (−)-menthol with a racemic menthol in a 1:1 in a toothpaste formulation. Such a direct replacement is not preferred given the reduced cooling profile and olfactory differences; however, a portion of L-menthol is preferably replaced by racemic-menthol to gain cost efficiency while minimizing impact to the overall mint flavor profiles.
Table B is a comparison of attributes between (−)-menthol and racemic menthol in a toothpaste context (using CREST Cavity formulation).
This value represents the concentration of a coolant where 50% of its maximal cooling is observed.

For `CC1CCC(C(C)C)C(O)C1` (racemic) [Racemic Menthol], the “less potent than (−)-menthol for cooling” value [1] was 25-30%, the “Maximum Longevity” value [2] was “Up to 20 minutes” and the “Potency compared to L-Menthol” value [2] was ~0.65-0.7x. For the same molecule, the “Time Point at Maximum Cooling” value [2] was ~1 min, the “Maximum Cooling (0-60 scale)” value ([2]; 60 = greatest amount of cooling, 0 = least) was 35 and the “EC 50” value ([2]; concentration of coolant giving 50% of its maximal cooling) was 1,250 to 1,500 parts per million.

— patent publication US20210338548A1, “Mint Flavor Compositions” (The Procter & Gamble Company, priority 2020, published 2021)
